Assay results from patent EP4768499A1, “MACROCYCLIC PEPTIDE COMPOUND HAVING CELL MEMBRANE PERMEABILITY AND METABOLIC STABILITY, AND LIBRARY CONTAINING SAME” (Chugai Seiyaku Kabushiki Kaisha, priority 2023, dated 2025).
Like-named read-outs stand apart in the source and are kept apart here. Starred links: 1 amine or outer side, 2 acyl side, 3 side chain; linkers in the order of their positions; H or OH if unused. Positions of bridges follow the written chain, without caps; N, C: chain ends. Non-standard residues stand in square brackets, D forms with d. Residues, ends and D or L forms follow the SMILES beside them. *: point of attachment. NMeF = CN[C@@H](Cc1ccccc1)C(=O)O; NMeGABA = CN(CCCC(=O)[*:2])[*:1]; NMeI = CC[C@H](C)[C@H](NC)C(=O)O; hPhe = N[C@@H](CCc1ccccc1)C(=O)O; NMeβAla = CN(CCC(=O)[*:2])[*:1]; NMeL = CN[C@@H](CC(C)C)C(=O)O; dNMeV = CN[C@@H](C(=O)O)C(C)C; NMeV = CN[C@H](C(=O)O)C(C)C; NMeAbu = CC[C@H](NC)C(=O)O; NMeA = CN[C@@H](C)C(=O)O; Piperidide = C1CCN(*)CC1; Abu = CC[C@H](N)C(=O)O; NBuGly = CCCCNCC(=O)O; βAla = NCCC(=O)O; Sar = CNCC(=O)O; tBu = CC(C)(C)*

Legend:
[1] = Metabolic stability test: liver microsomal stability assay; type: in vitro ADME, mouse; conditions: for microsomal CLint at 1 µM: male, pH 7.4, presence of NADPH, read-out: Mouse Hepatic Microsome CLh,int NADPH(+)
Protocol: Under the presence and absence of NADPH, a microsome solution prepared to a concentration of 0.5 mg protein/mL using 100 mM phosphate buffer (pH 7.4) with mouse liver microsomes (male, Corning Incorporated, USA) and the compound at a concentration of 1 µM were subjected to a metabolic reaction for 22 minutes, 44 minutes, or 66 minutes. Protein removal processing was performed over time using acetonitrile, and the remaining amount of unchanged compound was analyzed using LCMS to calculate the intrinsic hepatic clearance (CLh, int) (Table 6).

[2] = Membrane permeability test using Caco-2 cells with preincubation; type: in vitro ADME; conditions: Caco-2
Protocol: (§1) The permeability coefficient (Caco-2 Papp (cm/sec)) is calculated using a numerical expression 1. [Expression 1] Papp = (1)/(C1 (0) × S) × (dQ)/(dt) [formula] dQ/dt represents the permeation rate of drug (the amount of drug appearing on the Basal side per unit time), S represents the total surface area of cells, and C1(0) represents the concentration of drug added on the Apical side.
(§2) Using a mixed medium of FaSSIF containing 1% DMSO and DMEM as the apical medium, and DMEM as the basal medium, Caco-2 cells and peptide compounds are preincubated for 20 to 24 hours under conditions of 5% CO2, 37°C, and 80 rpm. Afterward, the culture medium on the Apical side and the Basal side are aspirated and washed, the peptide compound was added to a FaSSIF/HBSS buffer solution containing 1% DMSO (1% DMSO) (pH 6.0) at the Apical side, a HBSS buffer solution containing 4% BSA (pH 7.4) was added to the Basal side, and measurement of membrane permeability is started. Each well is shaken under 5% CO2 at 37°C and 80 rpm, and at 180 minutes after the start of shaking, a sample on the Basal side is collected. The amount of peptide compounds in the sample was measured using LCMS, and the membrane permeability coefficient was calculated from the permeation amount (Table 7). When calculating the membrane permeability coefficient (Papp) from the permeation amount, the following expression can be used. Papp = (dQ)/(dt) × (1)/(C1 (0) × S) [formula]
(§3) dQ/dt represents the permeation rate of drug (the amount of drug appearing on the Basal side per unit time), C1(0) represents the concentration of drug added on the Apical side, and S represents the total surface area of cells.

[3] = tested on: Caco-2 cells; experiment: as above; type: in vitro ADME
Protocol: as §1, §2, §3

[4] = mouse liver microsomes 0.5 mg protein/mL, compound 1 µM
[5] = mouse liver microsomes 0.5 mg protein/mL, compound 1 µM, absence of NADPH
[6] = preincubation 20 to 24 hours, Apical FaSSIF/HBSS pH 6.0, Basal HBSS 4% BSA pH 7.4, 180 minutes, read-out: Caco2 Papp
[7] = Caco-2 cells, preincubation 20 to 24 hours, apical FaSSIF/HBSS 1% DMSO pH 6.0, basal HBSS 4% BSA pH 7.4, basal sample at 180 minutes

Structure (SMILES): CC(C)C[C@@H]1NC(=O)[C@@H]2CCCN2C(=O)[C@H](C(C)C)N(C)C(=O)[C@H](C)NC(=O)[C@H](CC(C)C)N(C)C(=O)[C@@H](C(C)C)NC(=O)C[C@@H](C(=O)N2CCCCC2)NC(=O)[C@H](C(C)C)N(C)C(=O)[C@H](C)NC(=O)[C@H](CC(C)C)N(C)C(=O)[C@H](C(C)C)NC(=O)[C@H](COC(C)(C)C)NC(=O)[C@H](CC(C)C)N(C)C(=O)[C@H](Cc2ccccc2)N(C)C1=O [pd014] ([dV][NMeL]A[NMeV]PL[NMeF][NMeL]S(tBu)V[NMeL]A[NMeV]D-Piperidide; lactam N-14)
- microsomal CLint at 1 µM [1, 4]: 31.1 µL/min/mg
- Mouse Hepatic Microsome CLh,int NADPH(-) [1, 5]: 33.0 µL/min/mg Protein
- Papp A→B [2, 6]: < 0.11 ×10⁻⁶ cm/s
- Caco2 Papp (10^-6 cm/sec) [3, 7]: <0.11 10^-6 cm/sec

Structure (SMILES): CC[C@H](C)[C@@H]1NC(=O)[C@H](C)NC(=O)[C@H](CC(C)C)N(C)C(=O)[C@H](COC(C)(C)C)NC(=O)[C@H](CC(C)C)N(C)C(=O)[C@@H]2CCCN2C(=O)[C@H](Cc2ccccc2)NC(=O)CCN(C)C(=O)[C@H](CC(C)C)N(C)C(=O)CCCN(C)C(=O)C[C@@H](C(=O)N2CCCCC2)NC(=O)[C@H](Cc2ccccc2)N(C)C(=O)[C@H](CC(C)C)NC(=O)[C@H](CC)N(C)C1=O [pd017] ([NMeGABA][NMeL][NMeβAla]FP[NMeL]S(tBu)[NMeL]AI[NMeAbu]L[NMeF]D-Piperidide; lactam N-14)
- microsomal CLint at 1 µM [1, 4]: 39.4 µL/min/mg
- Mouse Hepatic Microsome CLh,int NADPH(-) [1, 5]: 40.1 µL/min/mg Protein
- Papp A→B [2, 6]: 0.09 ×10⁻⁶ cm/s
- Caco2 Papp (10^-6 cm/sec) [3, 7]: 0.09 10^-6 cm/sec

Structure (SMILES): CCCCN1CC(=O)N(C)[C@@H](CC)C(=O)N[C@@H](CC(C)C)C(=O)N[C@H](C(=O)N2CCCCC2)CC(=O)N(C)[C@@H](C)C(=O)N[C@@H]([C@@H](C)CC)C(=O)N(C)[C@@H](Cc2ccccc2)C(=O)N(C)[C@@H](CC(C)C)C(=O)N[C@@H](C(C)C)C(=O)N(C)CC(=O)N[C@@H](CC(C)C)C(=O)N(C)[C@@H](Cc2ccccc2)C(=O)N(C)[C@@H](C)C(=O)N[C@@H](CC(C)C)C1=O [pd018] ([NMeA]I[NMeF][NMeL]V[Sar]L[NMeF][NMeA]L[NBuGly][NMeAbu]LD-Piperidide; lactam N-14)
- microsomal CLint at 1 µM [1, 4]: 42.3 µL/min/mg
- Mouse Hepatic Microsome CLh,int NADPH(-) [1, 5]: 34.1 µL/min/mg Protein
- Papp A→B [2, 6]: 0.11 ×10⁻⁶ cm/s
- Caco2 Papp (10^-6 cm/sec) [3, 7]: 0.11 10^-6 cm/sec

Structure (SMILES): CCCCN1CC(=O)N[C@@H](C)C(=O)N(C)[C@@H](Cc2ccccc2)C(=O)N[C@@H](CC(C)C)C(=O)N[C@@H](C)C(=O)N(C)[C@@H](C(C)C)C(=O)N[C@H](C(=O)N2CCCCC2)CC(=O)N[C@H](C(C)C)C(=O)N(C)[C@@H](Cc2ccccc2)C(=O)N[C@@H](CC)C(=O)N(C)[C@@H](C(C)C)C(=O)N(C)CCC(=O)N[C@@H]([C@@H](C)O)C(=O)N(C)[C@@H](CC(C)C)C1=O [pd019] ([dV][NMeF][Abu][NMeV][NMeβAla]T[NMeL][NBuGly]A[NMeF]LA[NMeV]D-Piperidide; lactam N-14)
- microsomal CLint at 1 µM [1, 4]: 34.7 µL/min/mg
- Mouse Hepatic Microsome CLh,int NADPH(-) [1, 5]: 24.9 µL/min/mg Protein
- Papp A→B [2, 6]: < 0.11 ×10⁻⁶ cm/s
- Caco2 Papp (10^-6 cm/sec) [3, 7]: <0.11 10^-6 cm/sec

Structure (SMILES): CC[C@H]1C(=O)N[C@@H](C(C)C)C(=O)N[C@H](C(=O)N2CCCCC2)CC(=O)N(C)[C@H](C(C)C)C(=O)N(C)[C@@H](Cc2ccccc2)C(=O)N[C@@H](CC(C)C)C(=O)N(C)CC(=O)N[C@@H](CC(C)C)C(=O)N[C@@H]([C@@H](C)O)C(=O)N(C)[C@@H](CC(C)C)C(=O)N(C)[C@@H](C(C)C)C(=O)N[C@@H](C)C(=O)N[C@@H](COC(C)(C)C)C(=O)N(C)[C@@H](Cc2ccccc2)C(=O)N1C [pd020] ([dNMeV][NMeF]L[Sar]LT[NMeL][NMeV]AS(tBu)[NMeF][NMeAbu]VD-Piperidide; lactam N-14)
- microsomal CLint at 1 µM [1, 4]: 33.3 µL/min/mg
- Mouse Hepatic Microsome CLh,int NADPH(-) [1, 5]: 24.9 µL/min/mg Protein
- Papp A→B [2, 6]: < 0.11 ×10⁻⁶ cm/s
- Caco2 Papp (10^-6 cm/sec) [3, 7]: <0.11 10^-6 cm/sec

Structure (SMILES): CC[C@@H]1NC(=O)[C@H](Cc2ccccc2)N(C)C(=O)[C@H]([C@@H](C)CC)NC(=O)[C@H](CC(C)C)N(C)C(=O)[C@H](CC(C)C)NC(=O)CCN(C)C(=O)C[C@@H](C(=O)N2CCCCC2)NC(=O)[C@H](C(C)C)NC(=O)[C@H](CC(C)C)N(C)C(=O)[C@H](C)N(C)C(=O)[C@H]([C@@H](C)O)NC(=O)[C@H](CC(C)C)N(C)C(=O)[C@H](COC(C)(C)C)NC(=O)[C@H](Cc2ccccc2)N(C)C1=O [pd021] ([NMeβAla]L[NMeL]I[NMeF][Abu][NMeF]S(tBu)[NMeL]T[NMeA][NMeL]VD-Piperidide; lactam N-14)
- microsomal CLint at 1 µM [1, 4]: 37.1 µL/min/mg
- Mouse Hepatic Microsome CLh,int NADPH(-) [1, 5]: 36.3 µL/min/mg Protein
- Papp A→B [2, 6]: 0.15 ×10⁻⁶ cm/s
- Caco2 Papp (10^-6 cm/sec) [3, 7]: 0.15 10^-6 cm/sec

Structure (SMILES): CC[C@H](C)[C@@H]1NC(=O)[C@H](COC(C)(C)C)NC(=O)[C@H]([C@@H](C)O)NC(=O)[C@H](Cc2ccccc2)N(C)C(=O)[C@H](C)N(C)C(=O)[C@H](CC(C)C)N(C)C(=O)[C@H](CCc2ccccc2)NC(=O)[C@@H]2CCCN2C(=O)[C@H]([C@@H](C)CC)NC(=O)[C@H](CC(C)C)N(C)C(=O)[C@H](C)NC(=O)CCCN(C)C(=O)C[C@@H](C(=O)N2CCCCC2)NC(=O)[C@H](CC(C)C)N(C)C1=O [pd022] ([NMeGABA]A[NMeL]IP[hPhe][NMeL][NMeA][NMeF]TS(tBu)I[NMeL]D-Piperidide; lactam N-14)
- microsomal CLint at 1 µM [1, 4]: 44.4 µL/min/mg
- Mouse Hepatic Microsome CLh,int NADPH(-) [1, 5]: 36.4 µL/min/mg Protein
- Papp A→B [2, 6]: 0.15 ×10⁻⁶ cm/s
- Caco2 Papp (10^-6 cm/sec) [3, 7]: 0.15 10^-6 cm/sec

Structure (SMILES): CC[C@@H]1NC(=O)[C@H](CC(C)C)N(C)C(=O)[C@H](C)NC(=O)[C@@H]2CCCN2C(=O)[C@H]([C@@H](C)CC)NC(=O)[C@H](CC(C)C)N(C)C(=O)[C@H](CCc2ccccc2)NC(=O)CCCN(C)C(=O)C[C@@H](C(=O)N2CCCCC2)NC(=O)[C@H](CC(C)C)N(C)C(=O)[C@H]([C@@H](C)CC)NC(=O)[C@H](C)N(C)C(=O)[C@H]([C@@H](C)O)NC(=O)[C@H](Cc2ccccc2)N(C)C1=O [pd023] ([NMeGABA][hPhe][NMeL]IPA[NMeL][Abu][NMeF]T[NMeA]I[NMeL]D-Piperidide; lactam N-14)
- microsomal CLint at 1 µM [1, 4]: 43.3 µL/min/mg
- Mouse Hepatic Microsome CLh,int NADPH(-) [1, 5]: 26.2 µL/min/mg Protein
- Papp A→B [2, 6]: 0.03 ×10⁻⁶ cm/s
- Caco2 Papp (10^-6 cm/sec) [3, 7]: 0.03 10^-6 cm/sec

Structure (SMILES): CC[C@H](C)[C@H]1C(=O)NCCC(=O)N(C)[C@@H](CC(C)C)C(=O)N[C@H](C(=O)N2CCCCC2)CC(=O)N(C)[C@@H](C)C(=O)N[C@@H](CC(C)C)C(=O)N[C@@H]([C@@H](C)O)C(=O)N(C)[C@@H](Cc2ccccc2)C(=O)NCCC(=O)N(C)[C@@H](C(C)C)C(=O)N[C@@H](CC(C)C)C(=O)N(C)[C@@H]([C@@H](C)CC)C(=O)N[C@@H](CCc2ccccc2)C(=O)N(C)CC(=O)N1C [pd024] ([NMeA]LT[NMeF][βAla][NMeV]L[NMeI][hPhe][Sar][NMeI][βAla][NMeL]D-Piperidide; lactam N-14)
- Mouse Hepatic Microsome CLh,int NADPH(-) [1]: 20.0 µL/min/mg Protein
- Papp A→B [2]: 0.3 ×10⁻⁶ cm/s
- Caco2 Papp (10^-6 cm/sec) ([3]; Caco-2): 0.30 10^-6 cm/sec

Structure (SMILES): CC[C@H](C)[C@@H]1NC(=O)[C@H](C)NC(=O)[C@H](C(C)C)N(C)C(=O)[C@H](COC(C)(C)C)NC(=O)[C@H](C)N(C)C(=O)C[C@@H](C(=O)N2CCCCC2)NC(=O)[C@H](C(C)C)NC(=O)[C@H](Cc2ccccc2)N(C)C(=O)[C@H](CC(C)C)N(C)C(=O)[C@H]([C@@H](C)O)NC(=O)[C@H](CC)N(C)C(=O)[C@H](Cc2ccccc2)N(C)C(=O)[C@H](C)NC(=O)[C@@H]2CCCN2C1=O [pd025] ([NMeA]S(tBu)[NMeV]AIPA[NMeF][NMeAbu]T[NMeL][NMeF]VD-Piperidide; lactam N-14)
- microsomal CLint at 1 µM [1, 4]: 14.8 µL/min/mg
- Mouse Hepatic Microsome CLh,int NADPH(-) [1, 5]: 15.8 µL/min/mg Protein
- Papp A→B [2, 6]: 0.05 ×10⁻⁶ cm/s
- Caco2 Papp (10^-6 cm/sec) [3, 7]: 0.05 10^-6 cm/sec
